Data from patent publication US3962443A, “Antibacterial pharmaceutical compositions and processes for preparation thereof” (Dainippon Pharmaceutical Co., Ltd., priority 1972, dated 1976).
Values after ≈ are worked out from the molar mass of the structure shown.

Assays:
[1] = test system: Pseudomonas aeruginosa Tsuchijima; experiment: In vitro antibacterial activity, MIC by serial dilution; format: cell-based; conditions: nutrient broth pH 7.0, 37°C, 48 hours
Procedure: (§1) The minimum inhibitory concentration (MIC) was determined by the well
(§2) known serial dilution method.
(§3) Experimental conditions:?
(§4) Medium: nutrient broth, pH 7.0 (5 ml/tube)
(§5) Inoculum: 1 drop of 1 : 10^5 dilution of an overnight broth culture
(§6) Incubation temperature and time: 37°C for 48 hours

[2] = test system: Escherichia coli K-12; experiment: as above; format: cell-based; conditions: K12; Escherichia coli K-12; nutrient broth pH 7.0, 37°C, 48 hours; read-out: MIC
Procedure: as §1, §2, §3, §4, §5, §6

[3] = test system: Staphylococcus aureus Terajima; experiment: as above; format: cell-based; conditions: nutrient broth pH 7.0, 37°C, 48 hours
Procedure: as §1, §2, §3, §4, §5, §6

[4] = test system: Pseudomonas aeruginosa No. 12; experiment: In vivo efficacy against systemic infection with Pseudomonas aeruginosa in mice; design: species or system mice (ddY-S); conditions: NO.12, 168 h, 7 days; for responders at 25 mg/kg / responders at 50 mg/kg / responders at 100 mg/kg / responders at 200 mg/kg: read-out: number of the survival/the total number (converted); for ED50: twice, about 5 minutes and 6 hours after infection
Procedure: (§7) In the Tables II to IV, the ED50 and ID50 values were calculated in accordance with the Behrens-Kaerber method [Arch. Exp. Path. Pharm., 162, 480 (1931)]. The compound numbers are those described in the Examples and compounds PA and AT-616 are as follows:
(§8) total number. 0/8 means that all of 8 mice died. 8/8 means that all 8 mic
(§9) Mice: male mice (ddY-S) weighing 20 g approximately

[5] = test system: Salmonella typhimurium S-9; experiment: In vivo efficacy against systemic infection with Salmonella typhimurium in mice; design: species or system mice (ddY-S); conditions: for ED50: Salmonella enterica, TYPHIMURIUM, 336 h, twice a day for 4 days, 14 days observation; for number of the survived/the total number: 14 days
Procedure: as §7
The numerical figures in the table show the number of the survived/the
as §8
Experimental conditions.
Organism: Salmonella typhimurium S-9
as §9
Infection: Intraperitoneal infection with 50 to 100 LD50 of a
bacterial suspension in nutrient broth (about 10^5 cells/mouse)
Medication: twice a day for 4 days from the day of infection.
Drug: an alkaline solution for parenteral administration and suspension i
0.2% CMC for oral administration
i.e.: intraperitoneal administration
p.o.: oral administration

[6] = test system: Mycobacterium tuberculosis H37 Rv; experiment: Antituberculous activity in vitro, MIC by serial dilution; format: cell-based; conditions: H37RV, 504 h, Kirchner medium with 0.2% bovine albumin, pH 7.0, 37°C, 3 weeks
Procedure: (§10) The minimum inhibitory concentration (MIC:μg/ml) was determined by the
(§11) well known serial dilution method.
as §3
(§12) Medium: Kirchner medium containing 0.2% bovine albumin, pH 7.0 (3 ml/tube
(§13) Inoculum: 1 drop of 1:10^2 dilution of a culture in Modified Kirchner
(§14) medium for 2 weeks (OD=0.3) per tube
(§15) Incubation temp. and time: 37°C for 3 weeks

[7] = test system: Mycobacterium tuberculosis Kurono; experiment: as above; format: cell-based; conditions: 504 h, Kirchner medium with 0.2% bovine albumin, pH 7.0, 37°C, 3 weeks
Procedure: as §10, §11, §3, §12, §13, §14, §15

## O=C(O)c1cn(Cc2ccccc2)c2nc(N3CCNCC3)ncc2c1=O [Compound 33, 8-Benzyl-5,8-dihydro-2-(1-piperazinyl)-5-oxopyrido [2,3-d]pyrimidine-6-carboxylic acid]
[1]
  MIC: 10 µg/mL (≈ 27.4 µM)
[2]
  MIC: 3 µg/mL (≈ 8.21 µM)
[3]
  MIC: 100 µg/mL (≈ 274 µM)
[4]; ip
  responders at 25 mg/kg: 100%
  ED50: < 17.7 mg/kg
[5]; ip
  ED50: 12.5 mg/kg
[5]; ip, 6.3 mg/kg
  number of the survived/the total number: 1/8
[5]; ip, 12.5 mg/kg
  number of the survived/the total number: 4/8
[5]; ip, 25 mg/kg
  number of the survived/the total number: 7/8

## C#CCN1CCN(c2ncc3c(=O)c(C(=O)O)cn(CC)c3n2)CC1 [Compound 38]
[1]
  MIC: > 100 µg/mL
[2]
  MIC: 3 µg/mL (≈ 8.79 µM)
[3]
  MIC: 10 µg/mL (≈ 29.3 µM)
[5]; po
  ED50: 21 mg/kg
[5]; po, 12.5 mg/kg
  number of the survived/the total number: 0/8
[5]; po, 25 mg/kg
  number of the survived/the total number: 6/8
[5]; po, 50 mg/kg
  number of the survived/the total number: 8/8

## C=CCn1cc(C(=O)O)c(=O)c2cnc(N3CCNCC3)nc21 [Compound 50]
[1]
  MIC: 30 µg/mL (≈ 95.1 µM)
[2]
  MIC: 10 µg/mL (≈ 31.7 µM)
[3]
  MIC: 100 µg/mL (≈ 317 µM)
[4]; ip
  responders at 25 mg/kg: 12.5%
  responders at 50 mg/kg: 87.5%
  responders at 100 mg/kg: 100%
  ED50: 35 mg/kg

## C=Cn1cc(C(=O)O)c(=O)c2cnc(N3CCNCC3)nc21.Cl [Compound 54, 5,8-Dihydro-2-(1-piperazinyl)-8-vinyl-5-oxopyrido[2,3-d] pyrimidine-6-carboxylic acid hydrochloride]
[1]
  MIC: 3 µg/mL
[2]
  MIC: 3 µg/mL
[3]
  MIC: > 100 µg/mL
[5]; po
  ED50: 17.7 mg/kg
[5]; po, 12.5 mg/kg
  number of the survived/the total number: 2/8
[5]; po, 25 mg/kg
  number of the survived/the total number: 6/8
[5]; po, 50 mg/kg
  number of the survived/the total number: 8/8

## Cl.O=C(O)c1cn(CCCl)c2nc(N3CCNCC3)ncc2c1=O [Compound 63, 8-(2-chloroethyl)-5,8-dihydro-2-(1-piperazinyl)-5-oxopyrido[2,3-d]pyrimidine-6-carboxylic acid hydrochloride]
[1]
  MIC: 30 µg/mL
[2]
  MIC: 3 µg/mL
[3]
  MIC: 30 µg/mL
[4]; ip
  responders at 25 mg/kg: 100%
  responders at 50 mg/kg: 100%
  ED50: < 17.7 mg/kg

## CCn1cc(C(=O)O)c(=O)c2cnc(N3CCC(O)C3)nc21 (centres unmarked) [Compound AT-616, reference compound]
[1]
  MIC: 100 µg/mL (≈ 329 µM)
[2]
  MIC: 1 µg/mL (≈ 3.29 µM)
[3]
  MIC: 30 µg/mL (≈ 98.6 µM)
[4]; ip
  responders at 100 mg/kg: 37.5%
  ED50: > 100 mg/kg
[4]; po
  responders at 200 mg/kg: 12.5%
  ED50: > 200 mg/kg

## CCn1cc(C(=O)O)c(=O)c2cnc(N3CCCC3)nc21 [Compound PA, reference compound]
[6]
  MIC: 100 µg/mL (≈ 347 µM)
[7]
  MIC: 100 µg/mL (≈ 347 µM)
[1]
  MIC: 100 µg/mL (≈ 347 µM)
[2]
  MIC: 1 µg/mL (≈ 3.47 µM)
[3]
  MIC: 10 µg/mL (≈ 34.7 µM)
[4]; ip
  responders at 100 mg/kg: 0%
  ED50: > 100 mg/kg
[4]; po
  responders at 200 mg/kg: 0%
  ED50: > 200 mg/kg
[5]; ip
  ED50: 43.5 mg/kg
[5]; po
  ED50: 46.7 mg/kg
[5]; ip, 12.5 mg/kg
  number of the survived/the total number: 0/10
[5]; ip, 25 mg/kg
  number of the survived/the total number: 3/10
[5]; ip, 50 mg/kg
  number of the survived/the total number: 5/10
[5]; ip, 100 mg/kg
  number of the survived/the total number: 9/10
[5]; po, 12.5 mg/kg
  number of the survived/the total number: 0/10
[5]; po, 25 mg/kg
  number of the survived/the total number: 3/10
[5]; po, 50 mg/kg
  number of the survived/the total number: 4/10
[5]; po, 100 mg/kg
  number of the survived/the total number: 10/10
